US9957232B2, “4-[4-({[4-chloro-3-(trifluoromethyl)phenyl]carbamoyl}amino)-3-fluorophenoxy]-N-methylpyridine-2-carboxamide monohydrate” (BAYER HEALTHCARE LLC, priority 2006, dated 2018)

Test: stability in the manufacture of pharmaceutical compositions
Assay type: physicochemical
Settings: monohydrate form; qualitative statement, no test described

CNC(=O)c1cc(Oc2ccc(NC(=O)Nc3ccc(Cl)c(C(F)(F)F)c3)c(F)c2)ccn1 [compound of the formula (II), 4-[4-({[4-chloro-3-(trifluoromethyl)phenyl]carbamoyl}amino)-3-fluorophenoxy]-N-methylpyridine-2-carboxamide monohydrate]
stability in the manufacture of pharmaceutical compositions: high stability
